Experimental data reported in the supplement of paper PMC9938120.

Tests used:
Assay in all cases: drug sensitivity score (DSS3, normalised partial AUC of % inhibition dose-response) (DSS (score)); higher = more sensitive (stronger inhibition of viability); extreme values may be limits of the assay
FMOC22 = patient-derived mucinous ovarian cancer cells; details: 72 h; library: FO5A; assay format: 2D, 384-well, CellTiter-Glo
Procedure, shortened: (§1)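 Early-passage (under 10) patient-derived ovarian cancer cells were dispensed onto 384-well flat clear-bottom plates pre-plated with compounds at five concentrations spanning a 10,000-fold range, then incubated 72 h at 37 °C, 5% CO2. Viability was read with CellTiter-Glo, and the data were processed in Breeze. The drug sensitivity score is a partial area under the percent-inhibition dose-response curve divided by the log of the upper asymptote, with higher values meaning greater sensitivity.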

FMOC09 = patient-derived high-grade serous ovarian cancer cells; details: 72 h; library: FO5A; assay format: 2D, 384-well, CellTiter-Glo
Procedure, shortened: as §1

FMOC06 = patient-derived mucinous ovarian cancer cells; details: 72 h; library: FO5A; assay format: 2D, 384-well, CellTiter-Glo
Procedure, shortened: as §1

FMOC03 = patient-derived mucinous ovarian cancer cells; details: 72 h; library: FO5A; assay format: 2D, 384-well, CellTiter-Glo
Procedure, shortened: as §1

FMOC02_3 = patient-derived low-grade serous ovarian cancer cells; details: 72 h; library: FO5A; assay format: 2D, 384-well, CellTiter-Glo
Procedure, shortened: as §1

FMOC25_2 = patient-derived low-grade serous ovarian cancer cells; details: 72 h; library: FO5A; assay format: 2D, 384-well, CellTiter-Glo
Procedure, shortened: as §1

FMOC02_2 = patient-derived low-grade serous ovarian cancer cells; details: 72 h; library: FO5A; assay format: 2D, 384-well, CellTiter-Glo
Procedure, shortened: as §1

FMOC14 = patient-derived high-grade serous ovarian cancer cells; details: 72 h; library: FO5A; assay format: 2D, 384-well, CellTiter-Glo
Procedure, shortened: as §1

FMOC24 = patient-derived high-grade serous ovarian cancer cells; details: 72 h; library: FO5A; assay format: 2D, 384-well, CellTiter-Glo
Procedure, shortened: as §1

FMOC25_1 = patient-derived low-grade serous ovarian cancer cells; details: 72 h; library: FO4B; assay format: 2D, 384-well, CellTiter-Glo
Procedure, shortened: as §1

SMILES | drug sensitivity score (FMOC22) | drug sensitivity score (FMOC09) | drug sensitivity score (FMOC06) | drug sensitivity score (FMOC03) | drug sensitivity score (FMOC02_3) | drug sensitivity score (FMOC25_2) | drug sensitivity score (FMOC02_2) | drug sensitivity score (FMOC14) | drug sensitivity score (FMOC24) | drug sensitivity score (FMOC25_1)
Cc1cc(Nc2cc(N3CCN(C)CC3)nc(/C=C/c3ccccc3)n2)n[nH]1 [ENMD-2076] | 4.1 | 8.6 | 6.7 | 6.2 | 13.7 | 10.5 | 11.5 | 5.2 | 4.95 | 6.1
Cc1nc(=O)c2cc(CN(C)c3ccc(C(=O)N[C@@H](CCC(=O)O)C(=O)O)s3)ccc2[nH]1 [Raltitrexed] | 3.8 | 0 | 0 | 1.5 | 0 | 1.3 | 0 | 0.3 | 0.05 | 0.1
O=C(O)C(=O)O.[NH-][C@@H]1CCCC[C@H]1[NH-].[Pt+2] [Oxaliplatin] | 9.6 | 14.9 | 7 | 8.8 | 9.9 | 5.7 | 7.5 | 6.8 | 11.3 | 8.9
Nc1ncnc2c1nc(Cl)n2[C@@H]1O[C@H](CO)[C@@H](O)[C@H]1O [8-chloro-adenosine] | 3.2 | 5.5 | 4.1 | 2.4 | 18.2 | 15.2 | 19.7 | 3.3 | 6 | 11.4
CN1CCN(CCOc2cc(OC3CCOCC3)c3c(Nc4c(Cl)ccc5c4OCO5)ncnc3c2)CC1 [Saracatinib] | 0.6 | 11 | 4.6 | 9.4 | 16.7 | 10 | 15.6 | 5 | 4.7 | 5.3
CC(C)NC[C@@H](C(=O)N1CCN(c2ncnc3c2[C@H](C)C[C@H]3O)CC1)c1ccc(Cl)cc1 [Ipatasertib] | 2.1 | 0.1 | 4 | 1 | 14.3 | 7.4 | 7.8 | 2.8 | 3 | 7
CCn1c(=O)c(-c2ccc(Cl)cc2Cl)cc2cnc(Nc3ccc(N4CCNCC4)c(F)c3)nc21 [FRAX486] | 0.1 | 3.7 | 1.7 | 2.4 | 14.7 | 11.9 | 12.2 | 0.2 | 9.45 | 3.2
CC(=O)OC[C@H]1O[C@@H]([S-])[C@H](OC(C)=O)[C@@H](OC(C)=O)[C@@H]1OC(C)=O.CCP(CC)CC.[Au+] [Auranofin] | 3.1 | 3.5 | 4.1 | 1.3 | 1.8 | 3.8 | 0 | 5.2 | 1.1 | 0
CCn1c(-c2nonc2N)nc2c(C#CC(C)(C)O)ncc(OC[C@H]3CCCNC3)c21 | 1.2 | 2.4 | 4.5 | 2 | 12.5 | 8.1 | 10.3 | 2.7 | 1.6 | 4.5
O=C(c1cc(Cc2n[nH]c(=O)c3ccccc23)ccc1F)N1CCN(C(=O)C2CC2)CC1 [Olaparib] | 2.4 | 3.2 | 3.6 | 1.4 | 5 | 3.2 | 1.7 | 4.4 | 4.6 | 3
Cc1c2oc3c(C)ccc(C(=O)N[C@@H]4C(=O)N[C@H](C(C)C)C(=O)N5CCC[C@H]5C(=O)N(C)CC(=O)N(C)[C@@H](C(C)C)C(=O)O[C@@H]4C)c3nc-2c(C(=O)N[C@@H]2C(=O)N[C@H](C(C)C)C(=O)N3CCC[C@H]3C(=O)N(C)CC(=O)N(C)[C@@H](C(C)C)C(=O)O[C@@H]2C)c(N)c1=O [Dactinomycin] | 21.5 | 16.7 | 22.9 | 21.7 | 27.2 | 28.8 | 22.1 | 21.7 | 23.2 | 23.3
Cc1cc2c(C(=O)NC[C@H](C)c3ccccc3)c(O)c(O)cc2c(O)c1-c1c(C)cc2c(C(=O)NC[C@H](C)c3ccccc3)c(O)c(O)cc2c1O [Sabutoclax] | 10.8 | 9.3 | 5.6 | 9.6 | 9.1 | 5.3 | 5.2 | 12.6 | 6.6 | 6.2
COc1cccc2c1C(=O)c1c(O)c3c(c(O)c1C2=O)C[C@@](O)(/C(CO)=N/NC(=O)CCCCCN1C(=O)C=CC1=O)C[C@@H]3O[C@H]1C[C@H](N)[C@H](O)[C@H](C)O1 [Aldoxorubicin] | 4.5 | 6.1 | 4.4 | 3.9 | 7.8 | 7.9 | 5 | 4.7 | 5.2 | 5.3
Nc1ccccc1NC(=O)c1ccc(CNc2nccc(-c3cccnc3)n2)cc1 [Mocetinostat] | 8 | 3.7 | 10.9 | 11.1 | 11.2 | 9.2 | 12.6 | 10.1 | 11.4 | 9.6
NS(=O)(=O)OC[C@@H]1C[C@@H](n2ccc3c(N[C@H]4CCc5ccccc54)ncnc32)C[C@@H]1O [Pevonedistat] | 12.6 | 10.1 | 4.1 | 8.2 | 10.6 | 20.5 | 10.2 | 0.3 | 10.7 | 11.5
